Laboratory results: PubChem BioAssay AID330 (DTP/NCI, 2004)
Several values for one entry are separate records, joined by “and”; a condition that tells them apart may be missing. Equal entries are not always repeated. Toxic doses and inconclusive results are not listed.

Tested on: P388 leukemia ip, CD2F1 mice, survival T/C
Experiment: NCI In Vivo Anticancer Drug Screen. Data for tumor model P388 Leukemia (intraperitoneal) in CD2F1 (CDF1) mice
Conditions: endpoint: median survival time, higher = longer survival
Outline: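 Mice carrying the transplanted tumor received test compound or vehicle. Survival was recorded in each group, and the value is the treated-group measurement divided by that of the vehicle-treated control group.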

[1] = dose: 25.0 mg/kg/injection, schedule: Q01DX009 (ip), vehicle: Klucel (hydroxypropylcellulose) (HPC)
[2] = dose: 50.0 mg/kg/injection, schedule: Q01DX009 (ip), vehicle: Klucel (hydroxypropylcellulose) (HPC)
[3] = dose: 200.0 mg/kg/injection, schedule: Q01DX009 (ip), vehicle: Klucel (hydroxypropylcellulose) (HPC)
[4] = dose: 50.0 mg/kg/injection, schedule: Q01DX005 (ip), vehicle: Klucel (hydroxypropylcellulose) (HPC)
[5] = dose: 100.0 mg/kg/injection, schedule: Q01DX005 (ip), vehicle: Klucel (hydroxypropylcellulose) (HPC)
[6] = dose: 200.0 mg/kg/injection, schedule: Q01DX005 (ip), vehicle: Klucel (hydroxypropylcellulose) (HPC)
[7] = dose: 100.0 mg/kg/injection, schedule: Q01DX001 (ip), vehicle: saline with Tween-80
[8] = dose: 200.0 mg/kg/injection, schedule: Q01DX001 (ip), vehicle: saline with Tween-80

In the case of `C[C@@H](CN1CC(=O)NC(=O)C1)N1CC(=O)NC(=O)C1`, the T/C (dose: 0.06 mg/kg/injection, schedule: Q01DX009 (ip), vehicle: Klucel (hydroxypropylcellulose) (HPC)) is reported as 108 % of control, the T/C (dose: 0.12 mg/kg/injection, schedule: Q01DX009 (ip), vehicle: Klucel (hydroxypropylcellulose) (HPC)) is reported as 101 % of control and the T/C (dose: 0.25 mg/kg/injection, schedule: Q01DX009 (ip), vehicle: Klucel (hydroxypropylcellulose) (HPC)) is reported as 111 % of control. The T/C (dose: 0.5 mg/kg/injection, schedule: Q01DX009 (ip), vehicle: Klucel (hydroxypropylcellulose) (HPC)) was 115 % of control, the T/C (dose: 1.0 mg/kg/injection, schedule: Q01DX009 (ip), vehicle: Klucel (hydroxypropylcellulose) (HPC)) was 121 % of control and the T/C (dose: 4.0 mg/kg/injection, schedule: Q01DX009 (ip), vehicle: Klucel (hydroxypropylcellulose) (HPC)) was 154 % of control. The T/C (dose: 8.0 mg/kg/injection, schedule: Q01DX009 (ip), vehicle: Klucel (hydroxypropylcellulose) (HPC)) was 159 % of control, the T/C (dose: 16.0 mg/kg/injection, schedule: Q01DX005 (iv), vehicle: suspension in saline) was 117 % of control and the T/C (dose: 16.0 mg/kg/injection, schedule: Q01DX009 (ip), vehicle: Klucel (hydroxypropylcellulose) (HPC)) was 187 % of control. For the same molecule, the T/C [1] was 178 % of control, the T/C (dose: 32.0 mg/kg/injection, schedule: Q01DX005 (iv), vehicle: suspension in saline) was 119 % of control and the T/C (dose: 32.0 mg/kg/injection, schedule: Q01DX009 (ip), vehicle: Klucel (hydroxypropylcellulose) (HPC)) was 218 % of control. The T/C [2] was 166 % of control and 221 % of control, the T/C (dose: 64.0 mg/kg/injection, schedule: Q01DX009 (ip), vehicle: Klucel (hydroxypropylcellulose) (HPC)) was 218 % of control and the T/C (dose: 100.0 mg/kg/injection, schedule: Q01DX009 (ip), vehicle: Klucel (hydroxypropylcellulose) (HPC)) was 200 % of control. The T/C (dose: 128.0 mg/kg/injection, schedule: Q01DX005 (ip), vehicle: suspension in saline) was 161 % of control and 177 % of control, the T/C (dose: 128.0 mg/kg/injection, schedule: Q01DX009 (ip), vehicle: Klucel (hydroxypropylcellulose) (HPC)) was 229 % of control and the T/C [3] was 113 % of control and 92 % of control. The T/C (dose: 256.0 mg/kg/injection, schedule: Q01DX001 (ip), vehicle: Klucel (hydroxypropylcellulose) (HPC)) was 97 % of control, the T/C (dose: 256.0 mg/kg/injection, schedule: Q01DX005 (ip), vehicle: suspension in saline) was 194 % of control and 208 % of control and the T/C (dose: 256.0 mg/kg/injection, schedule: Q01DX005 (iv), vehicle: suspension in saline) was 171 % of control and 180 % of control. The T/C (dose: 400.0 mg/kg/injection, schedule: Q01DX009 (ip), vehicle: Klucel (hydroxypropylcellulose) (HPC)) was 92 % of control, the T/C (dose: 512.0 mg/kg/injection, schedule: Q01DX001 (ip), vehicle: Klucel (hydroxypropylcellulose) (HPC)) was 122 % of control and the T/C (dose: 512.0 mg/kg/injection, schedule: Q01DX005 (ip), vehicle: suspension in saline) was 177 % of control. For the same molecule, the T/C (dose: 512.0 mg/kg/injection, schedule: Q01DX005 (iv), vehicle: suspension in saline) was 171 % of control, the T/C (dose: 600.0 mg/kg/injection, schedule: Q04DX003 (ip), vehicle: saline) was 205 % of control and the T/C (dose: 2048.0 mg/kg/injection, schedule: Q01DX001 (ip), vehicle: Klucel (hydroxypropylcellulose) (HPC)) was 159 % of control.

`CN1C(=O)OC(c2ccc(Cl)cc2)C1=O` (stereo not drawn) was tested, and the T/C (dose: 25.0 mg/kg/injection, schedule: Q01DX005 (ip), vehicle: Klucel (hydroxypropylcellulose) (HPC)) was 100 % of control, the T/C [4] was 100 % of control and the T/C [5] was 107 % of control. For the same molecule, the T/C [6] was 100 % of control.

For `C[C@@]12CCCC1=[N+]1CCc3ccccc3[C@@H]1CC2=O`, the T/C (dose: 100.0 mg/kg/injection, schedule: Q04DX002 (ip), vehicle: Klucel (hydroxypropylcellulose) (HPC)) was 101 % of control and the T/C (dose: 200.0 mg/kg/injection, schedule: Q04DX002 (ip), vehicle: Klucel (hydroxypropylcellulose) (HPC)) was 102 % of control.

For `CN1CCC(CNC(=O)CCCCCCCCC(=O)NCC2(c3ccccc3)CCN(C)CC2)(c2ccccc2)CC1`, the T/C (dose: 0.39 mg/kg/injection, schedule: Q01DX009 (ip), vehicle: saline) was 100 % of control, the T/C (dose: 0.78 mg/kg/injection, schedule: Q01DX009 (ip), vehicle: saline) was 96 % of control and the T/C (dose: 1.56 mg/kg/injection, schedule: Q01DX009 (ip), vehicle: saline) was 105 % of control. For the same molecule, the T/C (dose: 3.12 mg/kg/injection, schedule: Q01DX009 (ip), vehicle: saline) was 111 % of control.

With `O=C1c2ccccc2C(O)N1CCc1c[nH]c2ccccc12` (stereo not drawn) the T/C [4] was 93 % of control, the T/C [5] was 95 % of control and the T/C [6] was 91 % of control.

`Cc1ccc(NC(=O)OCCN(C)C)cc1Cl` was tested, and the T/C (dose: 60.0 mg/kg/injection, schedule: Q01DX005 (ip), vehicle: Klucel + Tween-80) was 101 % of control, the T/C (dose: 120.0 mg/kg/injection, schedule: Q01DX005 (ip), vehicle: Klucel + Tween-80) was 99 % of control and the T/C (dose: 240.0 mg/kg/injection, schedule: Q01DX005 (ip), vehicle: Klucel + Tween-80) was 91 % of control.

`CN(C)CCNC1c2ccccc2CCc2ccccc21` was tested, and the T/C (dose: 50.0 mg/kg/injection, schedule: Q01DX005 (ip), vehicle: saline) was 104 % of control and the T/C (dose: 100.0 mg/kg/injection, schedule: Q01DX005 (ip), vehicle: saline) was 100 % of control.

With `CN1CCc2[nH]nc(-c3n[nH]c4c3CN(C)CC4)c2C1` the T/C (dose: 60.0 mg/kg/injection, schedule: Q01DX005 (ip), vehicle: saline) was 100 % of control, the T/C (dose: 120.0 mg/kg/injection, schedule: Q01DX005 (ip), vehicle: saline) was 86 % of control and the T/C (dose: 240.0 mg/kg/injection, schedule: Q01DX005 (ip), vehicle: saline) was 93 % of control.

For `c1ccc2c[n+](CCCCCCCCCC[n+]3ccc4ccccc4c3)ccc2c1`, the T/C (dose: 1.25 mg/kg/injection, schedule: Q01DX009 (ip), vehicle: saline) was 94 % of control, the T/C (dose: 2.5 mg/kg/injection, schedule: Q01DX009 (ip), vehicle: saline) was 101 % of control and the T/C (dose: 5.0 mg/kg/injection, schedule: Q01DX009 (ip), vehicle: saline) was 102 % of control.

In the case of `COc1cc(C)c(OC)c(C/C=C(\C)CC2(O)C[C@@]3(C)CCC[C@@]3(C)C(=O)C2CC(C)(C)O)c1` (stereo partly drawn), the T/C (dose: 5.0 mg/kg/injection, schedule: Q01DX005 (ip), vehicle: saline with Tween-80) is reported as 92 % of control, the T/C (dose: 10.0 mg/kg/injection, schedule: Q01DX005 (ip), vehicle: saline with Tween-80) is reported as 95 % of control and the T/C (dose: 20.0 mg/kg/injection, schedule: Q01DX005 (ip), vehicle: saline with Tween-80) is reported as 93 % of control.

`O=C1CCC([N+](=O)[O-])([N+](=O)[O-])CO1` was tested, and the T/C [7] was 111 % of control, the T/C [8] was 106 % of control and the T/C (dose: 400.0 mg/kg/injection, schedule: Q01DX001 (ip), vehicle: saline with Tween-80) was 113 % of control.

With `CCCCC(CC1CCCCC1)C(=O)O` (stereo not drawn) the T/C (dose: 50.0 mg/kg/injection, schedule: Q01DX001 (ip), vehicle: saline with Tween-80) was 113 % of control, the T/C [7] was 109 % of control and the T/C [8] was 109 % of control.

For `O=c1oc2cc(Cl)cnc2n1-c1ccccc1`, the T/C (dose: 100.0 mg/kg/injection, schedule: Q01DX001 (ip), vehicle: Klucel (hydroxypropylcellulose) (HPC)) was 96 % of control, the T/C (dose: 200.0 mg/kg/injection, schedule: Q01DX001 (ip), vehicle: Klucel (hydroxypropylcellulose) (HPC)) was 98 % of control and the T/C (dose: 400.0 mg/kg/injection, schedule: Q01DX001 (ip), vehicle: Klucel (hydroxypropylcellulose) (HPC)) was 90 % of control.

For `COc1cc(C2c3cc4c(cc3OC(OC(C)=O)C2C)OCO4)cc(OC)c1OC` (stereo not drawn), the T/C (dose: 60.0 mg/kg/injection, schedule: Q01DX005 (ip), vehicle: saline with Tween-80) was 96 % of control, the T/C (dose: 120.0 mg/kg/injection, schedule: Q01DX005 (ip), vehicle: saline with Tween-80) was 94 % of control and the T/C (dose: 240.0 mg/kg/injection, schedule: Q01DX005 (ip), vehicle: saline with Tween-80) was 105 % of control.

For `CCCCNP(=O)(N1CC1C)N1CC1C` (stereo not drawn), the T/C (dose: 8.25 mg/kg/injection, schedule: Q01DX009 (ip), vehicle: saline) was 112 % of control, the T/C (dose: 12.5 mg/kg/injection, schedule: Q01DX009 (ip), vehicle: saline) was 120 % of control and the T/C (dose: 25.0 mg/kg/injection, schedule: Q01DX009 (ip), vehicle: saline) was 109 % of control. For the same molecule, the T/C (dose: 50.0 mg/kg/injection, schedule: Q01DX009 (ip), vehicle: saline) was 86 % of control.

With `CN1CCCc2cc(/C=C\c3ccnc4ccccc34)ccc21` the T/C [1] was 93 % of control, the T/C [2] was 104 % of control and the T/C [3] was 118 % of control.
